Assay results as given in patent US20190307908A1, “NANOEMULSION AGENTS FOR ULTRASOUND DIAGNOSTIC AND THERAPY” (University of Washington, priority 2018, published 2019).

How the values were obtained:
[1] = maximum PFC dissolved in ethanol; assay type: physicochemical; settings: in ethanol (co-solvent)
Experimental: PFC ouzo droplets were synthesized by first dissolving a PFC into ethanol (co-solvent). A maximum of approximately 2.0% perfluorohexane (C6F14, TBoiling=56° C.), 2.3% perfluoropentane (C5F12, TBoiling=29° C.), 2.5% perfluorobutane (C4F10, TBoiling=2° C.), and 2.7% perfluoropropane ([…], TBoiling=−37° C.) by volume could be dissolved in ethanol. In the ethanol phase, a 20:1 mole ratio of dipalmitoylphosphatidylcholine (DPPC) and N-(Methylpolyoxyethylene oxycarbonyl)-1,2-distearoyl-sn-glycero-3-phosphoethanolamine sodium salt (DSPE-PEG 2K) lipids were also dissolved. The total lipid concentration was varied from 0.10 mg/ml to 1.82 mg/ml depending on the volume of perfluorocarbon that was used. […] However, lower concentration lipids solutions were not used to ensure ample lipids were in solution to stabilize the droplet interface. […] When an aqueous solution (solvent) prepared at a ratio of 7:2:1 water/propylene glycol/glycerol is added to the PFC/ethanol solution, the PFC oil phase quickly loses solubility resulting in the spontaneous nucleation of stable droplets (FIG. 2). Since PFCs are known to have very poor solubility in water, the greater the water content relative to ethanol, the lower the PFC solubility is in the final mixed solvent. The inclusion of glycerol and propylene glycol is optional for droplet nucleation. For example, PFC emulsions can also be generated in the absence of any stabilizer (FIGS. 8 and 9). However, glycerol and propylene glycol are commonly used along with lipid mixtures to improve microbubble stability. Here, glycerol and propylene glycol were also included in the ouzo droplet formulation to make the agent composition analogous to microbubbles and to increase stability.
The lipid-ethanol stock solution was then divided as needed. Using a stir plate, PFCs were then dissolved in the lipid-ethanol solution until it was fully saturated. For liquid PFCs (i.e. PFH and PFP), the PFC oil was incrementally added to the stirred ethanol solution until a small droplet of PFC formed in solution. The solution was then removed from the stir plate and allowed to rest at room temperature for approximately 20 minutes, enabling excess PFC to fall to the bottom of the container. For gaseous PFCs (i.e. PFB and OFP), PFC gas was bubbled into a sealed glass vial with the ethanol solution at a pressure of 1.5-2.0 PSI while on ice. It was bubbled through for a minimum of 2 minutes and purged 3 times to ensure the headspace was filled with gaseous PFC. Then, the PFC-lipid-ethanol solution was pipetted into a clean glass vial and diluted as needed using additional lipid-ethanol solution to achieve the desired PFC in ethanol saturation percentage. […]

[2] = test system: rat spinal cord; test: ultrasound contrast imaging in a rat spinal cord model; assay type: in vivo, Sprague-Dawley rat; settings: bolus via tail vein, 15 MHz linear array, harmonic imaging
Experimental: Ouzo-synthesized droplets were used as an ultrasound contrast agent in a rat spinal cord model (FIGS. 7A-7D). Surgical procedures were performed according to approved institutional animal care and use committee (IACUC) protocol following all appropriate guidelines from the university's Animal Welfare Assurance (A3464-01) as well as the NIH Office of Laboratory Animal Welfare (OLAW). A laminectomy was performed to remove the top surface of spine vertebrae, exposing the spinal cord. A bolus injection of perfluorobutane droplets ([…]) with a mean diameter of 182 nm was administered via tail vein and imaged using a 15 MHz linear array ultrasound transducer. […] Harmonic imaging was necessary to suppress intrinsic linear signals from this tissue model and to highlight the non-linear signals that are generated from bubble oscillations.
Surgical procedures were performed according to approved institutional animal care and use committee (IACUC) protocol following all appropriate guidelines from the university's Animal Welfare Assurance (A3464-01) as well as the NIH Office of Laboratory Animal Welfare (OLAW). A 0.2 ml bolus injection of perfluorobutane droplets diluted to approximately 10^6 droplet/ml was injected via tail vein in an anesthetized female Sprague-Dawley rat. An ultrasound imaging window was made by performing a laminectomy to expose the spinal cord between T6 and T10. […]

SMILES | maximum that could be dissolved in ethanol [1] | ultrasound contrast enhancement after injection [2]
FC(F)(F)C(F)(F)C(F)(F)C(F)(F)F [perfluorobutane] | ~2.5 % by volume | –
FC(F)(F)C(F)(F)C(F)(F)C(F)(F)C(F)(F)C(F)(F)F [perfluorohexane] | approximately 2.0 % by volume | nearly zero contrast enhancement
FC(F)(F)C(F)(F)C(F)(F)C(F)(F)C(F)(F)F [perfluoropentane] | ~2.3 % by volume | nearly zero contrast enhancement
FC(F)(F)C(F)(F)C(F)(F)F [perfluoropropane] | ~2.7 % by volume | –
